{
  "source": "patent US12221656B2",
  "about": "“Methods and materials for assessing homologous recombination deficiency” (Myriad Genetics, Inc., priority 2014, dated 2025)",
  "system": "triple negative breast cancer (TNBC)",
  "assay": "Neoadjuvant cisplatin cohort, pathologic response in triple negative breast cancer",
  "assay_type": "in vivo, human",
  "conditions": "for Pathologic complete response (pCR = yes), % response / Pathologic response (PR = yes), % response: secondary analysis, n=51",
  "procedure": "Analysis of a neoadjuvant TNBC cohort treated with cisplatin was examined relative to the relationship between all three HRD scores and response. All p values were from logistic regression models with response to cisplatin as the dependent variable.\nHR Deficiency status was determined for 62 of the 70 samples (70 individual patients) received from a cisplatin cohort (8 had insufficient tumors for analysis). Of these, 31 (50%) were HR deficient, 22 (35%) were non-HR deficient, and 9 (15%) were undetermined. FIG. 15 provides a histogram showing the distribution of HRD scores in the cohort. […] were considered to have high HRD (see also, Example 5). […] Pathologic complete response (pCR), which is associated with long-term survival, was defined as a residual cancer burden (RBC) of 0 and observed in 11/59 (19%) samples. […] These overall response rates correlated with monotherapy expectations.\nStatistical analyses followed a predefined Statistical Analysis Plan (SAP), which included primary, secondary, and BRCA wild-type subset analyses.",
  "data": [
    {"compound": "N.N.[Cl][Pt][Cl]", "note": "[cisplatin]", "values": [
      {"measurement": "Pathologic complete response (pCR = yes), % response", "setting": "BRCA Mutant", "result": "3 (33.3%)"},
      {"measurement": "Pathologic response (PR = yes), % response", "setting": "BRCA Mutant", "result": "5 (55.6%)"},
      {"measurement": "Pathologic complete response (pCR = yes), % response", "setting": "BRCA Non-mutant", "result": "5 (11.9%)"},
      {"measurement": "Pathologic response (PR = yes), % response", "setting": "BRCA Non-mutant", "result": "13 (31.0%)"},
      {"measurement": "Pathologic complete response (pCR), residual cancer burden of 0", "setting": "whole cisplatin cohort, 11/59 samples", "result": 19, "unit": "%"},
      {"measurement": "Pathologic response (PR), residual cancer burden of 0 or 1", "setting": "whole cisplatin cohort, 22/59 samples", "result": 37, "unit": "%"}
    ]}
  ]
}
